Results published in patent publication US9695171B2, “3,4-disubstituted-1 H-pyrrolo[2,3-b]pyridines and 4,5-disubstituted-7H-pyrrolo[2,3-c]pyridazines as LRRK2 inhibitors” (Pfizer Inc., priority 2013, dated 2017).

What follows are molecules tested against T1, GST-tagged truncated LRRK2 (Homo sapiens, UniProt Q5S007) (assay: LRRK2 kinase assay (Lantha Screen)). Settings: 1 mM ATP (head); a = geometric mean of >=4 determinations, b = single determination; read-out: LRRK2 LANTHA EC50 at 1 mM ATP; Geometric mean of 2-3 determinations unless otherwise indicated.
T1 construct: GST-tagged truncated LRRK2 from Invitrogen (Cat # PV4874); GST; purchased Invitrogen PV4874
T1 sequence (Q5S007 970-2527 limits assumed): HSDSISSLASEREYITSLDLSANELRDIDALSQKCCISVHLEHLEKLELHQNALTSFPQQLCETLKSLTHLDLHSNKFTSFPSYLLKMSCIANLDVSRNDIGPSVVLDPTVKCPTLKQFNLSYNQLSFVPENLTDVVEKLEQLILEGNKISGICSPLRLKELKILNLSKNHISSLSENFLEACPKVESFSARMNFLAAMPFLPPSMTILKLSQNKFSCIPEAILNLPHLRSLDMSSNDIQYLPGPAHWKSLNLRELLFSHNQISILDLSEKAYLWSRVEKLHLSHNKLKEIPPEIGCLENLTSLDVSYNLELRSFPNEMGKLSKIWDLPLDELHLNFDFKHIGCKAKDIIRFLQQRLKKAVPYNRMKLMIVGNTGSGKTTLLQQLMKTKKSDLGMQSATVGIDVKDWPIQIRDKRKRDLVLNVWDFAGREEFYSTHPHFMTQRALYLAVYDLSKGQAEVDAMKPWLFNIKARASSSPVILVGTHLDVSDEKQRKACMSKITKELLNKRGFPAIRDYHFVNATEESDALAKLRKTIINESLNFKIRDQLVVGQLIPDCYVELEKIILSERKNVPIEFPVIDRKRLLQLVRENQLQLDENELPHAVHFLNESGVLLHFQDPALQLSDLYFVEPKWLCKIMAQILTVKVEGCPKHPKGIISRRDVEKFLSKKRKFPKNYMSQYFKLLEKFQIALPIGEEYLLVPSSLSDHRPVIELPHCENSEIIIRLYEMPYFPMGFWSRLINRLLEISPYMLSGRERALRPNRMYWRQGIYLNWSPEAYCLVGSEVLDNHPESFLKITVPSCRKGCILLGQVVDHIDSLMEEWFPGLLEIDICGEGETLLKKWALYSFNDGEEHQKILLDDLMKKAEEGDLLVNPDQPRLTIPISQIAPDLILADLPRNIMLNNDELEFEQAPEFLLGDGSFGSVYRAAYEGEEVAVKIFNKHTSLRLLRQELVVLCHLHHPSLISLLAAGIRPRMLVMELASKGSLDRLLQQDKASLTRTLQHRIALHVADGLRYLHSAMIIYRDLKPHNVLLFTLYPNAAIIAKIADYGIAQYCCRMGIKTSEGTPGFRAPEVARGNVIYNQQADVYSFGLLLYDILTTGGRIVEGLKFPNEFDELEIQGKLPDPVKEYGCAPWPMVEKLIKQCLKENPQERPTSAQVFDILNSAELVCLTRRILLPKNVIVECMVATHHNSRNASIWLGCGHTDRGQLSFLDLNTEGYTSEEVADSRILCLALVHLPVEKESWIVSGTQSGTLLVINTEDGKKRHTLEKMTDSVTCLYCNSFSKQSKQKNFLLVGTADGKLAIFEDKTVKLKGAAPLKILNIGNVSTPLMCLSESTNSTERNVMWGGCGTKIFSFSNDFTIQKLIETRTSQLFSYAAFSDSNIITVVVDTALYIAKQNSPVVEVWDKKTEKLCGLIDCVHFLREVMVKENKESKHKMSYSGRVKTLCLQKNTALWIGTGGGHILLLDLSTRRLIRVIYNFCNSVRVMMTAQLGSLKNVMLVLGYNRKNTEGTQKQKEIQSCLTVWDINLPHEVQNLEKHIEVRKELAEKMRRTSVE
Type: biochemical
Procedure: LRRK2 kinase activity was measured using Lantha Screen technology from Invitrogen. GST-tagged truncated LRRK2 from Invitrogen (Cat # PV4874) was incubated with a fluorescein-labeled peptide substrate based upon ezrin/radixin/moesin (ERM), also known as LRRKtide (Invitrogen cat # PR8976A), in the presence of a dose response of compound. Upon completion, the assay was stopped and detected with a terbium labeled anti-phospho-ERM antibody (Invitrogen, cat # PR8975A). […] The compound dose response was prepared by diluting compound to a top concentration of 3.16 mM in 100% DMSO and serial diluted by half-log in DMSO 11 times. Aliquots (3.5 μL) of the 100% DMSO dose response were mixed with 46.5 μL water then 1 μL of this mixture was added to the 3 μL substrate mix in the 384-well plate. The kinase reaction was started with 3 μL of a working solution of LRRK2 enzyme at a concentration of 4 μg/mL. […] The reaction was allowed to progress at room temperature for two hours and then stopped with the addition of 7 μL of detection buffer (20 mM Tris pH 7.6, 0.01% NP-40, 0.02% NaN3, 6 mM EDTA with 2 nM terbium labeled anti-phospho-ERM). After an incubation of 1 hour at room temperature, the plate was read on an Envision with an excitation wavelength of 340 nm and a reading emission at both 520 nm and 495 nm. The ratio of the 520 nm and 495 nm emission was used to analyze the data.

| EC50 [nM] | SMILES |
| --- | --- |
| 101 | Cc1[nH]c2nccc(N3CCOCC3)c2c1-c1cccc(F)c1 [Example 55, 3-(3-fluorophenyl)-2-methyl-4-(morpholin-4-yl)-1H-pyrrolo[2,3-b]pyridine] |
| 101 | Cn1cc(-c2ccnc3[nH]cc(-c4cccc(C#N)c4)c23)cn1 [Example 101, 3-[4-(1-methyl-1H-pyrazol-4-yl)-1H-pyrrolo[2,3-b]pyridin-3-yl]benzonitrile] |
| 125 | Cn1cc(-c2c[nH]c3nccc(-c4cc(F)cc(F)c4)c23)cn1 [Example 103, 4-(3,5-difluorophenyl)-3-(1-methyl-1H-pyrazol-4-yl)-1H-pyrrolo[2,3-b]pyridine] |
| 71.9 | Cn1cc(-c2c[nH]c3nccc(N4CCSCC4)c23)cn1 [Example 63, 3-(1-methyl-1H-pyrazol-4-yl)-4-(thiomorpholin-4-yl)-1H-pyrrolo[2,3-b]pyridine] |
| 63.1 | Cn1cc(-c2c[nH]c3nccc(-c4cccc(Cl)c4)c23)cn1 [Example 97, 4-(3-chlorophenyl)-3-(1-methyl-1H-pyrazol-4-yl)-1H-pyrrolo[2,3-b]pyridine] |
| 137 | Cc1[nH]c2nccc(N3CCOCC3)c2c1-c1cnn(C)c1 [Example 17, 2-methyl-3-(1-methyl-1H-pyrazol-4-yl)-4-(morpholin-4-yl)-1H-pyrrolo[2,3-b]pyridine] |
| 226 | N#Cc1cc(-c2c[nH]c3nccc(N4CCOCC4)c23)ccc1F [Example 41, 2-fluoro-5-[4-(morpholin-4-yl)-1H-pyrrolo[2,3-b]pyridin-3-yl]benzonitrile] |
| 185 | Cn1cc(-c2c[nH]c3nccc(-c4cccc(CC#N)c4)c23)cn1 [Example 108, {3-[3-(1-methyl-1H-pyrazol-4-yl)-1H-pyrrolo[2,3-b]pyridin-4-yl]phenyl}acetonitrile] |
| 13.7 | Cn1cc(-c2c[nH]c3nccc(-c4ccccc4)c23)cn1 [Example 89, 3-(1-methyl-1H-pyrazol-4-yl)-4-phenyl-1H-pyrrolo[2,3-b]pyridine] |
| 12.3 | COC(=O)c1cnc2[nH]cc(-c3cccc(C#N)c3)c2c1N1CCOCC1 [Example 82, methyl 3-(3-cyanophenyl)-4-(morpholin-4-yl)-1H-pyrrolo[2,3-b]pyridine-5-carboxylate] |
| 2.85 | Cn1cc(-c2c[nH]c3nccc(N4CCOCC4)c23)cc1C#N [Example 4, 1-Methyl-4-[4-(morpholin-4-yl)-1H-pyrrolo[2,3-b]pyridin-3-yl]-1H-pyrrole-2-carbonitrile] |
| 22.9 | Cc1cc(F)cc(-c2c[nH]c3nccc(N4CCOCC4)c23)c1 [Example 38, 3-(3-fluoro-5-methylphenyl)-4-(morpholin-4-yl)-1H-pyrrolo[2,3-b]pyridine] |
| 57.6 | Fc1ccc(Cl)cc1-c1c[nH]c2nccc(N3CCOCC3)c12 [Example 27, 3-(5-chloro-2-fluorophenyl)-4-(morpholin-4-yl)-1H-pyrrolo[2,3-b]pyridine] |
| 63.4 | COCc1cnc2[nH]cc(-c3cccc(C#N)c3)c2c1N1CCOCC1 [Example 84, 3-[5-(methoxymethyl)-4-(morpholin-4-yl)-1H-pyrrolo[2,3-b]pyridin-3-yl]benzonitrile] |
| 38.7 | N#Cc1cccc(-c2c[nH]c3nccc(N4CC[C@@H](F)C4)c23)c1 [Example 75, 3-{4-[(3R)-3-fluoropyrrolidin-1-yl]-1H-pyrrolo[2,3-b]pyridin-3-yl}benzonitrile] |
| 150 | N#Cc1cccc(-c2c[nH]c3nccc(N4CCCOCC4)c23)c1 [Example 69, 3-[4-(1,4-oxazepan-4-yl)-1H-pyrrolo[2,3-b]pyridin-3-yl]benzonitrile] |
| 43.4 | N#Cc1cccc(-c2c[nH]c3nccc(-c4cccc(C(=O)NC5CC5)c4)c23)c1 [Example 91, 3-[3-(3-cyanophenyl)-1H-pyrrolo[2,3-b]pyridin-4-yl]-N-cyclopropylbenzamide] |
| 29.6 | Cc1cc(F)cc(-c2c[nH]c3ncc(C#N)c(N4CCOCC4)c23)c1 [Example 46, 3-(3-fluoro-5-methylphenyl)-4-(morpholin-4-yl)-1H-pyrrolo[2,3-b]pyridine-5-carbonitrile] |
| 45.6 | Cn1cc(-c2c[nH]c3nccc(-c4ccc(F)c(F)c4)c23)cn1 [Example 94, 4-(3,4-difluorophenyl)-3-(1-methyl-1H-pyrazol-4-yl)-1H-pyrrolo[2,3-b]pyridine] |
| 179 | Cc1nnc(-c2cccc(-c3c[nH]c4nccc(N5CCOCC5)c34)c2)o1 [Example 30, 3-[3-(5-methyl-1,3,4-oxadiazol-2-yl)phenyl]-4-(morpholin-4-yl)-1H-pyrrolo[2,3-b]pyridine] |

| EC50 [nM] | SMILES |
| --- | --- |
| 197 | Cn1cc(-c2c[nH]c3nccc(N4CCCC(F)(F)C4)c23)cn1 [Example 59, 4-(3,3-difluoropiperidin-1-yl)-3-(1-methyl-1H-pyrazol-4-yl)-1H-pyrrolo[2,3-b]pyridine] |
| 140 | N#Cc1cc(F)cc(-c2c[nH]c3nccc(N4CCOCC4)c23)c1 [Example 39, 3-fluoro-5-[4-(morpholin-4-yl)-1H-pyrrolo[2,3-b]pyridin-3-yl]benzonitrile] |
| 34.5 | Fc1cccc(-c2c[nH]c3nccc(N4CCOCC4)c23)c1 [Example 25, 3-(3-fluorophenyl)-4-(morpholin-4-yl)-1H-pyrrolo[2,3-b]pyridine] |
| 24 | N#Cc1cccc(-c2c[nH]c3nccc(N4CC[C@H](F)C4)c23)c1 [Example 78, 3-{4-[(3S)-3-fluoropyrrolidin-1-yl]-1H-pyrrolo[2,3-b]pyridin-3-yl}benzonitrile] |
| 29 | Fc1ccccc1-c1c[nH]c2nccc(N3CCOCC3)c12 [Example 26, 3-(2-fluorophenyl)-4-(morpholin-4-yl)-1H-pyrrolo[2,3-b]pyridine] |
| 158 | Cc1[nH]c2nccc(N3CCOCC3)c2c1-c1cccc(Cl)c1 [Example 52, 3-(3-chlorophenyl)-2-methyl-4-(morpholin-4-yl)-1H-pyrrolo[2,3-b]pyridine] |
| 143 | Cn1cc(-c2c[nH]c3ncc(C#N)c(N4CCOCC4)c23)cn1 [Example 44, 3-(1-methyl-1H-pyrazol-4-yl)-4-(morpholin-4-yl)-1H-pyrrolo[2,3-b]pyridine-5-carbonitrile] |
| 5.46 | Cc1[nH]c2nccc(N3CCOCC3)c2c1-c1cc(C#N)n(C)c1 [Example 87, 1-methyl-4-[2-methyl-4-(morpholin-4-yl)-1H-pyrrolo[2,3-b]pyridin-3-yl]-1H-pyrrole-2-carbonitrile] |
| 1.3 | Cn1cc(-c2c(Cl)[nH]c3nccc(N4CCOCC4)c23)cc1C#N [Example 7, 4-[2-Chloro-4-(morpholin-4-yl)-1H-pyrrolo[2,3-b]pyridin-3-yl]-1-methyl-1H-pyrrole-2-carbonitrile] |
| 96.3 | OCc1cccc(-c2c[nH]c3nccc(N4CCOCC4)c23)c1 [Example 28, {3-[4-(morpholin-4-yl)-1H-pyrrolo[2,3-b]pyridin-3-yl]phenyl}methanol] |
| 59.6 | Cn1cc(-c2c[nH]c3nccc(C4=CCOCC4)c23)cn1 [Example 12, 4-(3,6-Dihydro-2H-pyran-4-yl)-3-(1-methyl-1H-pyrazol-4-yl)-1H-pyrrolo[2,3-b]pyridine] |
| 85.3 | N#Cc1cccc(-c2c[nH]c3nccc(N4CCC(O)CC4)c23)c1 [Example 70, 3-[4-(4-hydroxypiperidin-1-yl)-1H-pyrrolo[2,3-b]pyridin-3-yl]benzonitrile] |
| 5.17 | N#Cc1cccc(-c2c[nH]c3nccc(N4CCOCC4)c23)c1F [Example 2, 2-Fluoro-3-[4-(morpholin-4-yl)-1H-pyrrolo[2,3-b]pyridin-3-yl]benzonitrile] |
| 144 | Cn1cc(-c2c[nH]c3nccc(-c4ccoc4)c23)cn1 [Example 106, 4-(furan-3-yl)-3-(1-methyl-1H-pyrazol-4-yl)-1H-pyrrolo[2,3-b]pyridine] |
| 140 | Cn1cc(-c2c[nH]c3nccc(N4CCCC(CO)C4)c23)cn1 (stereo not shown) [Example 60, {1-[3-(1-methyl-1H-pyrazol-4-yl)-1H-pyrrolo[2,3-b]pyridin-4-yl]piperidin-3-yl}methanol] |
| 130 | Fc1ccc(F)c(-c2c[nH]c3nccc(N4CCOCC4)c23)c1 [Example 22, 3-(2,5-difluorophenyl)-4-(morpholin-4-yl)-1H-pyrrolo[2,3-b]pyridine] |
| 92.5 | CNS(=O)(=O)c1cccc(-c2ccnc3[nH]cc(-c4cccc(C#N)c4)c23)c1 [Example 99, 3-[3-(3-cyanophenyl)-1H-pyrrolo[2,3-b]pyridin-4-yl]-N-methylbenzenesulfonamide] |
| 110 | Clc1ncccc1-c1c[nH]c2nccc(N3CCOCC3)c12 [Example 35, 3-(2-chloropyridin-3-yl)-4-(morpholin-4-yl)-1H-pyrrolo[2,3-b]pyridine] |
| 79.8 | N#Cc1cccc(-c2c[nH]c3ncc(CO)c(N4CCOCC4)c23)c1 [Example 10, 3-[5-(Hydroxymethyl)-4-(morpholin-4-yl)-1H-pyrrolo[2,3-b]pyridin-3-yl]benzonitrile] |
| 20.4 | N#Cc1cccc(-c2c[nH]c3ncc(C#N)c(N4CCOCC4)c23)c1F [Example 45, 3-(3-cyano-2-fluorophenyl)-4-(morpholin-4-yl)-1H-pyrrolo[2,3-b]pyridine-5-carbonitrile] |
